The values that follow come from ChEMBL document CHEMBL1125373, “Systemic analgesic activity and delta-opioid selectivity in [2,6-dimethyl-Tyr1,D-Pen2,D-Pen5]enkephalin” (J Med Chem, 1992).

For orientation: EC50 means the concentration at which the effect is half-maximal.

Holding throughout (assay type): functional
For assay [1], the species on record is Mus musculus. In words: In Vitro evaluation for the potency for inhibiting the contraction of the electrically stimulated isolated mouse vas deferens.
For assay [2], the system named is Mus musculus. In words: In vivo antinociceptive activity in mice by using hot plate test after intracerebroventricular administration.
Assay [3] deals with Mus musculus. Put plainly: In vivo antinociceptive activity in mice by using PBQ writing test after subcutaneous administration. Conditions: sc.
For assay [4], the system named is Mus musculus. In words: In vivo antinociceptive activity in mice by using hot plate test after subcutaneous administration. Conditions: sc. (In general: In hot-plate and tail-flick tests a longer latency is read as antinociception.)

In assay [1], `Cc1cc(O)cc(C)c1C[C@H](N)C(=O)N[C@H]1C(=O)NCC(=O)N[C@@H](Cc2ccccc2)C(=O)N[C@@H](C(=O)O)C(C)(C)SSC1(C)C` [listing 1 of 2 here] showed an EC50 of 0.15 nM.

As for `CN1CC[C@]23c4c5ccc(O)c4O[C@H]2[C@@H](O)C=C[C@H]3[C@H]1C5` [MORPHINE], the ED50 in assay [2] is 0.6 µg; in assay [3], 0.2 mg/kg; in assay [4], 3.2 mg/kg.

Take `CC1(C)SSC(C)(C)[C@@H](NC(=O)[C@@H](N)Cc2ccc(O)cc2)C(=O)NCC(=O)N[C@@H](Cc2ccccc2)C(=O)N[C@H]1C(=O)O`: the ED50 in assay [2] turned out to be 1.4 µg. The compound also had a 50% effective concentration (EC50) in assay [1] of 12.9 nM.

With `Cc1cc(O)cc(C)c1C[C@H](N)C(=O)N[C@H]1C(=O)NCC(=O)N[C@@H](Cc2ccccc2)C(=O)N[C@@H](C(=O)O)C(C)(C)SSC1(C)C` [listing 2 of 2 here], the ED50 came to 0.2 µg in assay [2], 2.6 mg/kg in assay [3] and 33 mg/kg in assay [4].
